Experimental data: patent US12077503B2, “Substituted cyclic amides and their use as herbicides” (FMC CORPORATION, priority 2015, dated 2024)

Experiments:
Format in all cases: in vivo
[1] = test system: barnyardgrass (Echinochloa crus-galli); assay: Test B flooded paddy test; conditions: Echinochloa crus-galli, Flood, 250 g ai/ha; scale of 0 to 100 where 0 is no effect and 100 is complete control; read-out: Barnyardgrass plant response rating
How it was run: (§1)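 Compound goes directly into floodwater once pots are flooded 3 cm above soil, targeting plants at two leaves; the water depth is then held for the test duration. Plants sit 13–15 d in a greenhouse and are rated visually, 100 denoting complete control.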

[2] = test system: rice (Oryra sativa); assay: Test B flooded paddy test; conditions: Oryza sativa, Flood, 250 g ai/ha; scale of 0 to 100 where 0 is no effect and 100 is complete control; read-out: Rice plant response rating
How it was run: as §1

[3] = test system: ducksalad (Heteranthera limosa); assay: Test B flooded paddy test; conditions: Heteranthera limosa, Flood, 250 g ai/ha; scale of 0 to 100 where 0 is no effect and 100 is complete control; read-out: Ducksalad plant response rating
How it was run: as §1

[4] = test system: sedge, umbrella (small-flower umbrella sedge, Cyperus difformis); assay: Test B flooded paddy test; conditions: Cyperus difformis, Flood, 250 g ai/ha; scale of 0 to 100 where 0 is no effect and 100 is complete control; read-out: Sedge, Umbrella plant response rating
How it was run: as §1

[5] = test system: ragweed (common ragweed, Ambrosia elatior); assay: Test A preemergence; conditions: Ambrosia artemisiifolia, pre-emergence, 240 h; for pest or weed control at 125 g/ha: 125 g ai/ha, preemergence, visual rating after approx. 10 d, 0 to 100 scale where 0 is no effect and 100 is complete control; for pest or weed control at 500 g/ha: 500 g ai/ha, visual injury vs untreated controls after approximately 10 d, read-out: Ragweed plant response rating (0 to 100 scale where 0 is no effect and 100 is complete control)
How it was run: (§2)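 Visual injury, scored on a 0–100 scale relative to untreated controls, was recorded about 10 d after application. Treatments were a preemergence soil spray over planted seeds or a postemergence spray on plants at the one- to two-leaf stage, 2 to 10 cm tall, all in loam soil–sand blend in the greenhouse.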

[6] = test system: barnyardgrass (Echinochloa crus-galli); assay: Test A preemergence; conditions: Echinochloa crus-galli, pre-emergence, 240 h; for pest or weed control at 125 g/ha: 125 g ai/ha, preemergence, visual rating after approx. 10 d, 0 to 100 scale where 0 is no effect and 100 is complete control; for pest or weed control at 500 g/ha: 500 g ai/ha, visual injury vs untreated controls after approximately 10 d, read-out: Barnyardgrass plant response rating (0 to 100 scale where 0 is no effect and 100 is complete control)
How it was run: as §2

[7] = test system: pigweed (Amaranthus retroflexus); assay: Test A preemergence; conditions: Amaranthus retroflexus, pre-emergence, 240 h; for pest or weed control at 125 g/ha: 125 g ai/ha, preemergence, visual rating after approx. 10 d, 0 to 100 scale where 0 is no effect and 100 is complete control; for pest or weed control at 500 g/ha: 500 g ai/ha, visual injury vs untreated controls after approximately 10 d, read-out: Pigweed plant response rating (0 to 100 scale where 0 is no effect and 100 is complete control)
[8] = test system: giant foxtail (Setaria faberii); assay: Test A preemergence; conditions: Setaria faberi, pre-emergence, 240 h; for pest or weed control at 125 g/ha: 125 g ai/ha, preemergence, visual rating after approx. 10 d, 0 to 100 scale where 0 is no effect and 100 is complete control; for pest or weed control at 500 g/ha: 500 g ai/ha, visual injury vs untreated controls after approximately 10 d, read-out: Foxtail, Giant plant response rating (0 to 100 scale where 0 is no effect and 100 is complete control)
How it was run: as §2

[9] = test system: Kochia (Kochia scoparia); assay: Test A preemergence; conditions: Bassia scoparia, pre-emergence, 240 h; for pest or weed control at 125 g/ha: 125 g ai/ha, preemergence, visual rating after approx. 10 d, 0 to 100 scale where 0 is no effect and 100 is complete control; for pest or weed control at 500 g/ha: 500 g ai/ha, visual injury vs untreated controls after approximately 10 d, read-out: Kochia plant response rating (0 to 100 scale where 0 is no effect and 100 is complete control)
How it was run: as §2

[10] = test system: ryegrass, Italian (Italian ryegrass, Lolium multiflorum); assay: Test A preemergence; conditions: Lolium multiflorum, pre-emergence, 240 h; for pest or weed control at 125 g/ha: 125 g ai/ha, preemergence, visual rating after approx. 10 d, 0 to 100 scale where 0 is no effect and 100 is complete control; for pest or weed control at 500 g/ha: 500 g ai/ha, visual injury vs untreated controls after approximately 10 d, read-out: Ryegrass, Italian plant response rating (0 to 100 scale where 0 is no effect and 100 is complete control)
How it was run: as §2

[11] = test system: wheat (Triticum aestivum); assay: Test A postemergence; conditions: Triticum aestivum, post-emergence, 240 h, read-out: Plant response rating, Wheat; for plant injury at 125 g/ha: 125 g ai/ha, postemergence, visual injury after approximately 10 d, 0 to 100 scale (0 no effect, 100 complete control)
How it was run: as §2

[12] = test system: barnyardgrass (Echinochloa crus-galli); assay: Test A postemergence; conditions: Echinochloa crus-galli, post-emergence, 240 h, read-out: Plant response rating, Barnyardgrass; for pest or weed control at 125 g/ha: 125 g ai/ha, postemergence, visual injury after approximately 10 d, 0 to 100 scale (0 no effect, 100 complete control)
How it was run: as §2

[13] = test system: giant foxtail (Setaria faberii); assay: Test A postemergence; conditions: Setaria faberi, post-emergence, 240 h, read-out: Plant response rating, Foxtail, Giant; for pest or weed control at 125 g/ha: 125 g ai/ha, postemergence, visual injury after approximately 10 d, 0 to 100 scale (0 no effect, 100 complete control)
How it was run: as §2

[14] = test system: Galium (catchweed bedstraw, Galium aparine); assay: Test A postemergence; conditions: Galium, post-emergence, 240 h, read-out: Plant response rating, Galium; for pest or weed control at 125 g/ha: 125 g ai/ha, postemergence, visual injury after approximately 10 d, 0 to 100 scale (0 no effect, 100 complete control)
How it was run: as §2

[15] = read-out: Plant response rating, Ragweed
[16] = read-out: Plant response rating, Barnyardgrass
[17] = read-out: Plant response rating, Pigweed
[18] = read-out: Plant response rating, Foxtail, Giant
[19] = read-out: Plant response rating, Kochia
[20] = read-out: Plant response rating, Ryegrass, Italian
[21] = Postemergence, 31 g ai/ha, visual injury after approx. 10 d, 0 to 100 scale, 0 no effect, 100 complete control

SMILES | pest or weed control at 250 g/ha [1] | pest or weed control at 250 g/ha [2] | pest or weed control at 250 g/ha [3] | pest or weed control at 250 g/ha [4] | pest or weed control at 125 g/ha [5, 15] | pest or weed control at 125 g/ha [6, 16] | pest or weed control at 125 g/ha [7, 17] | pest or weed control at 125 g/ha [8, 18] | pest or weed control at 125 g/ha [9, 19] | pest or weed control at 125 g/ha [10, 20] | plant injury at 125 g/ha [11] | pest or weed control at 125 g/ha [12] | pest or weed control at 125 g/ha [13] | pest or weed control at 125 g/ha [14] | pest or weed control at 500 g/ha ([5]; Preemergence) | pest or weed control at 500 g/ha ([6]; Preemergence) | pest or weed control at 500 g/ha ([7]; Preemergence) | pest or weed control at 500 g/ha ([8]; Preemergence) | pest or weed control at 500 g/ha ([9]; Preemergence) | pest or weed control at 500 g/ha ([10]; Preemergence) | other results
COc1cc([C@H]2CN(C)C(=O)[C@@H]2C(=O)Nc2cccc(F)c2F)ccc1C(F)(F)F [Compound 770] | 0% | 0% | 0% | 0% | 0% | 90% | 90% | 90% | 0% | 0% | 0% | 60% | 70% | 60% |  |  |  |  |  |  | pest or weed control at 31 g/ha ([5]; Preemergence, 31 g ai/ha, 0 to 100 scale (0 no effect, 100 complete control), read-out: Plant response rating, Ragweed): 0%; pest or weed control at 31 g/ha ([6]; Preemergence, 31 g ai/ha, 0 to 100 scale (0 no effect, 100 complete control), read-out: Plant response rating, Barnyardgrass): 70%; pest or weed control at 31 g/ha ([7]; Preemergence, 31 g ai/ha, 0 to 100 scale (0 no effect, 100 complete control), read-out: Plant response rating, Pigweed): 40%; pest or weed control at 31 g/ha ([8]; Preemergence, 31 g ai/ha, 0 to 100 scale (0 no effect, 100 complete control), read-out: Plant response rating, Foxtail, Giant): 90%; pest or weed control at 31 g/ha ([9]; Preemergence, 31 g ai/ha, 0 to 100 scale (0 no effect, 100 complete control), read-out: Plant response rating, Kochia): 0%; pest or weed control at 31 g/ha ([10]; Preemergence, 31 g ai/ha, 0 to 100 scale (0 no effect, 100 complete control), read-out: Plant response rating, Ryegrass, Italian): 0%; plant injury at 31 g/ha [11, 21]: 0%; pest or weed control at 31 g/ha [12, 21]: 30%; pest or weed control at 31 g/ha [13, 21]: 60%; pest or weed control at 31 g/ha [14, 21]: 30%
CC(F)(F)c1cccc([C@H]2CNC(=O)[C@@H]2C(=O)Nc2cccc(F)c2F)c1 [Compound 779] | 60% | 0% | 100% | 0% | 20% | 90% | 40% | 90% | 70% | 40% | 80% | 90% | 80% | 60% | 70% | 90% | 60% | 90% | 80% | 40% | 
CC(F)(F)c1cccc([C@H]2CNC(=O)[C@@H]2C(=O)Nc2ccccc2S(C)(=O)=O)c1 [Compound 780] | 20% | 0% | 90% | 0% | 40% | 80% | 0% | 90% | 40% | 0% | 30% | 60% | 60% | 50% | 70% | 90% | 50% | 90% | 80% | 20% | 
CN1C[C@H](c2cc(F)cc(F)c2)[C@@H](C(=O)Nc2ncccc2F)C1=O [Compound 783] | 0% | 0% | 0% | 0% | 0% | 0% | 0% | 0% | 30% | 0% | 0% | 0% | 0% | 0% | 0% | 70% | 0% | 80% | 50% | 0% | 
CS(=O)(=O)c1ccccc1NC(=O)[C@H]1C(=O)NC[C@@H]1c1ccc(OC(F)F)cc1 [Compound 787] | 0% | 0% | 50% | 0% | 70% | 20% | 50% | 70% | 80% | 0% | 0% | 30% | 20% | 60% | 70% | 70% | 80% | 90% | 90% | 0% | 
